Test system: N. gonorrhoeae strains
Experiment: Well diffusion assay in the absence of human cells
Design: species or system Neisseria gonorrhoeae
Settings: GC-agar, overnight 37° C.; 100 μM to 100 μM [sic]
Experimental: (§1) FIG. 22 is a graphical representation showing the effect of carbamazepine on N. gonorrhoeae in the absence of human cells. Well diffusion assays were performed in which N. gonorrhoeae strains were spread uniformly across the surface of GC-agar plates at a culture density of 10^7 bacterial per mL. Wells were then punctured within the agar surface to which carbamazepine (Cz; […], as noted), 0.2 μg/mL ceftriaxone (Cfx), 10 μg/mL ciprofloxacin (Cip), or 1% DMSO (vehicle control) were added. […] For agar plates in which a ZOI was not visible, data were recorded as the diameter of the well (6 mm), as indicated. Assays were performed in triplicate on 3 separate occasions. Data are presented as the mean and variance of the average values obtained for each assay; statistical significance was determined using a Student's t-test. […] This is consistent with a CR3-dependent, host-mediated mechanism of killing.
as §1, with “23” for “22”, “methyldopa” for “carbamazepine”, “methyldopa (Md;” for “carbamazepine (Cz;”
FIG. 24 is a graphical representation showing the effect of flufenamic acid on N. gonorrhoeae in the absence of human cells. Well diffusion assays were performed in which N. gonorrhoeae strains were spread uniformly across the surface of GC-agar plates at a culture density of 10^7 bacterial per mL. Wells were then punctured within the agar surface to which flufenamic acid ([…], as noted), 0.2 μg/mL ceftriaxone, 10 μg/mL ciprofloxacin, or 1% DMSO (vehicle control) were added. […] For agar plates in which a ZOI was not visible, data were recorded as the diameter of the well (6 mm), as indicated. Assays were performed in triplicate on 3 separate occasions. Data are presented as the mean and variance of the average values obtained for each assay; statistical significance was determined using a Student's t-test.

## NC(=O)N1c2ccccc2C=Cc2ccccc21 [carbamazepine, 5H-dibenzo[b,f]azepine-5-carboxamide]
  effect on N. gonorrhoeae in the absence of human cells (zone of inhibition): no effect

— patent US12564596B2, “Agents and methods for modulating pathogen activity” (Griffith University, priority 2018, dated 2026)
